Assay results published in paper PMC10096453, “One-Pot Synthesis and Evaluation of Antioxidative Stress and Anticancer Properties of an Active Chromone Derivative” (Molecules, 2023).
Like-named read-outs stand apart in the source and are kept apart here.

Key:
[1] = ABTS radical cation scavenging assay; type: biochemical
Excerpt: (§1) Three in vitro antioxidant assays (DPPH, FRAP, and ABTS) were utilized to evaluate the antioxidant property of the synthesized compounds. The DPPH (α, α-diphenyl-β-picrylhydrazyl) assay is the well-known approach to determine antioxidant activity using a stable free radical DPPH, measure the absorbance change, and calculate the absorbance change in the percentage of scavenging activity. […] For example, the ferric-tripyridyltriazine (Fe^3+-TPTZ, colorless) complex is reduced to ferrous tripyridyltriazine (Fe^2+-TPTZ) at low pH and introduces a blue color with maximum absorption at 593 nm. The change in absorbance is related to antioxidant activity. However, a significant limitation of these in vitro tests is the non-physiological measurement conditions (no enzymatic condition and no transition metal ion chelating activity); therefore, the results obtained may not reflect the antioxidant activity of the source material under the biological conditions that exist in humans and animals. The ABTS assay involves a more drastic radical that is chemically produced. The use of ABTS for antioxidant activity determination of hydrophilic and lipophilic pure compounds has attracted interest due to its solubility in organic and aqueous media and stability in a wide pH range [31].
The ABTS assay was prepared by reaction of 5 mL of a 7 mM aqueous ABTS (2,2′-azino-bis (3-ethylbenzthiazoline-6-sulphonic acid) solution and 2.45 mM potassium persulfate solution (K2S2O8). After preparation and storage in the dark for 16 h, the radical cation solution was further diluted in ethanol to absorb about 0.7 at 734 nm. Trolox and test sample solutions were prepared in stock solution with DMSO and diluted with ethanol. A solution of 100 μL of the sample was mixed with 100 μL of the ABTS reagent in a 96-well plate. The mixture was shaken in a dark place for 10 min and incubated at 37 °C for 20 min, and the absorbance was determined at 734 nm. Absorbance determinations were recorded immediately and not more than 1 h after adding the reagent. The solution without the sample was used as a blank. All the determinations were made in triplicate. The sample’s scavenging percentage was calculated from this equation: scavenging percentage = (Absorbance control − Absorbance sample) × 100/Absorbance control. EC50 values were calculated from the relationship curve of %scavenging versus sample concentration.

[2] = FRAP (ferric reducing antioxidant power) assay; type: biochemical; settings: Trolox equivalent
Excerpt: as §1
The FRAP assay is a method for assessing antioxidant power. Briefly, the FRAP reagent was prepared from acetate buffer pH 3.6, 10 mM TPTZ solution in 40 mM HCl and 20 mM FeCl3.6 H2O in relative proportions of 10:1:1, v/v, respectively. The FRAP reagent was freshly prepared daily. A solution of 5 μL of the sample (3–300 μM, approx.) was mixed with 180 μL of the FRAP reagent in a 96-well plate. The mixture was shaken in the dark for 10 min and incubated at 37 °C for 20 min, and the absorbance was determined at 593 nm. The solution without the sample was used as a blank. All determinations were made in triplicate. Trolox was used as a standard antioxidant and plot the calibration curve between absorbance and concentration. Quercetin was applied as the reference compound. The FRAP values were calculated by comparing the absorbance change in the test sample and represented in μM of Trolox equivalent per μM of sample.

[3] = MTT cytotoxicity assay, HEK293 cells; type: cell-based; settings: human, HEK293 cells, 100 μM; for viability at 24 h, 100 µM: read-out: % Viability ± SD (at 100 μM) HEK293 24 h; for viability at 48 h, 100 µM: read-out: % Viability ± SD (at 100 μM) HEK293 48 h
Description: (§2) HEK293, HACAT, and HeLa cells were grown in modified Eagles’ minimum essential medium (EMEM, Gibco) with 10% fetal bovine serum (FBS, Gibco), 1% of 100 U/mL streptomycin and 100 U/mL penicillin (Gibco). Cells were seeded in culture flasks and maintained in an incubator at 37 °C in a humidified atmosphere with 5% CO2. After reaching 80–90% of confluence, cells were detached by incubation with 0.25% trypsin-0.2% EDTA (Gibco) for 5 min and plated for experiments.
(§3) This study examined cell cultures of HEK293, HACAT, and HeLa cells. The cytotoxicity of the test samples was carried out by the MTT (3-(4,5-dimethylthiazol-2-yl)-2,5-diphenyltetrazolium bromide) assay. The cells were seeded in 96-well microliter plates (2.0 × 10^4 cells/well). Stock solutions of the test compounds were prepared in DMSO. After 24 h, cells were treated with different concentrations of samples and diluted with media to obtain the final desired concentration. The treated cells were then incubated at 37 °C and 5% CO2 for 24 and 48 h. After incubation, the medium was replaced with 0.05% w/v of MTT solution in PBS and further incubated for 3 h. The solution was then discarded and DMSO was added to dissolve the formed formazan crystals. Each well’s absorbance (A) was measured at 570 nm using a microplate reader (FLUOstar Omega^TM, BMG Labtech, Ortenberg, Germany). All experiments were carried out in triplicate and repeated for at least three experiments.

[4] = test system: HeLa cell; assay: MTT anticancer activity assay, HeLa cells; type: cell-based
Description: as §2, §3

[5] = MTT cytotoxicity assay, HACAT cells; type: cell-based; settings: human; for viability at 24 h, 100 µM: read-out: % Viability ± SD (at 100 μM) HACAT 24 h; for viability at 48 h, 100 µM: read-out: % Viability ± SD (at 100 μM) HACAT 48 h
Description: as §2, §3

[6] = DPPH radical scavenging assay; type: biochemical; set-up: DPPH517nm % SA ± SD: dose or concentration left out as unconfirmed; settings: for DPPH517nm % SA ± SD: mean of three measurements; for EC50: read-out: DPPH517nm EC50 ± SD
Excerpt: as §1
The DPPH method was followed and modified from a previous study. Trolox was used as a reference. The DPPH stock solution at a concentration of 0.625 mM was prepared in 50% ethanol and kept at 4 °C in the dark. On the day of the experiment, 0.208 mM fresh DPPH working solution was freshly prepared by further diluting with 50% ethanol. […] Each reaction was carried out in a 96-well plate, and 100 μL of test preparation and DPPH solution were added. The 96-well plate was then shaken well for 10 min and kept in the dark at room temperature for 20 min, and the absorbance was recorded at 515–517 nm. According to the method described, delocalization also results in a deep violet color and is quantified as a percentage of scavenging activity. % scavenging activity (SA) = 100 × (Asample − Ablank)/(Acontrol − Ablank)(1) where Acontrol and Asample are the absorbances of the test DPPH without and with a sample, respectively. Ablank is the absorbance of the solvent used. The EC50 values were calculated from the relationship curve of %SA versus sample concentration. The experiment was carried out at least in triplicate.

[7] = test system: HeLa cells; assay: Cell cycle analysis by flow cytometry; type: cell-based; settings: 24 h, 2f, 2j, quercetin at IC50, paclitaxel 5 μM
Description: The paclitaxel (5 μM) was performed as the positive control.
The treatment of HeLa cells and compounds was the same as in the apoptosis protocol. The cells were harvested for 200 μL and centrifuged at 600× g for 5 min and washed with PBS. The mixing cells were slowly added 200 μL of ice-cold 70% ethanol and incubated for at least 3 h at −20 °C. Cells were centrifuged and washed with PBS. Finally, cells were stained with 200 μL of Muse® cell cycle reagent and incubated at room temperature for 30 min in the dark. The cell was analyzed by flow cytometry (Guava Muse Cell Analyzer, Luminex, Austin, TX, USA).

[8] = Homo sapiens, 24 h, read-out: % Viability ± SD (at 100 μM) HeLa 24 h
[9] = Homo sapiens, 48 h, read-out: % Viability ± SD (at 100 μM) HeLa 48 h

Compound	melting point	IC50 ([4]; 24 h)	IC50 ([4]; Homo sapiens, HeLa, 24 h)	EC50 [6]	EC50 ([1]; read-out: ABTS734nm EC50 ± SD)	ABTS734nm % Scavenging at 500 µM [1]	FRAP593nm Value ± SD (TE) [2]	viability at 24 h, 100 µM [3]	viability at 48 h, 100 µM [3]	viability at 100 µM [4, 8]	viability at 100 µM [4, 9]	viability at 24 h, 100 µM [5]	viability at 48 h, 100 µM [5]	DPPH517nm % SA ± SD [6]	Anticancer activity on cervical cancer cells ([4]; HeLa, 24 h)	Cell cycle phase arrest [7]	Cell population in G0/G1 phase [7]	Cell population in G2/M phase [7]	Cell population in S phase [7]
O=C(c1ccccc1)c1c(-c2ccccc2)oc2cccc(O)c2c1=O [2a, 3-Benzoyl-5-hydroxy-2-phenyl-4H-chromen-4-one]	156 to 158 °C					10.93 ± 1.44%	0.02 ± 0.004 µM Trolox/1 µM of Synthesized Compounds	111 ± 6.37%	103 ± 6.05%	91.9 ± 2.06%	58.8 ± 2.02%	63.8 ± 3.36%	88.5 ± 6.86%	2.23 ± 1.99%					
COc1ccc2oc(-c3ccccc3)c(C(=O)c3ccccc3)c(=O)c2c1 [2c, 3-Benzoyl-6-methoxy-2-phenyl-4H-chromen-4-one]	194 to 196 °C					13.16 ± 0.78%	0.07 ± 0.028 µM Trolox/1 µM of Synthesized Compounds	72.5 ± 6.46%	74 ± 1.32%	60.67 ± 0.57%	82.12 ± 0.11%	62.3 ± 3.04%	60.4 ± 0.73%	5.88 ± 2.65%					
O=C(c1ccccc1)c1c(-c2ccccc2)oc2cc(O)cc(O)c2c1=O [2e, 3-Benzoyl-5,7-dihydroxy-2-phenyl-4H-chromen-4-one]	196 to 197 °C		108 ± 4.04 µM	> 750 µM	158 ± 10.9 µM	80.67 ± 0.30%	0.02 ± 0.002 µM Trolox/1 µM of Synthesized Compounds	99.7 ± 2.41%	93.9 ± 5.34%	76 ± 1.52%	26.5 ± 1.13%	79.7 ± 3.26%	69.1 ± 3.07%	46.30 ± 3.61%	contained anticancer activity				
CC(=O)O[C@H]1C(=O)[C@@]2(C)[C@H]([C@H](OC(=O)c3ccccc3)[C@]3(O)C[C@H](OC(=O)[C@H](O)[C@@H](NC(=O)c4ccccc4)c4ccccc4)C(C)=C1C3(C)C)[C@]1(OC(C)=O)CO[C@@H]1C[C@@H]2O [Paclitaxel, paclitaxel, reference compound]																potent phase arrest of G2/M	5.89 ± 0.18%	89.12 ± 1.14 %	4.99 ± 0.96%

More lines, main results first:

melting point	IC50 ([4]; 24 h)	IC50 ([4]; Homo sapiens, HeLa, 24 h)	EC50 [6]	EC50 ([1]; read-out: ABTS734nm EC50 ± SD)	Compound	ABTS734nm % Scavenging at 500 µM [1]	FRAP593nm Value ± SD (TE) [2]	viability at 24 h, 100 µM [3]	viability at 48 h, 100 µM [3]	viability at 100 µM [4, 8]	viability at 100 µM [4, 9]	viability at 24 h, 100 µM [5]	viability at 48 h, 100 µM [5]	DPPH517nm % SA ± SD [6]	Anticancer activity on cervical cancer cells ([4]; HeLa, 24 h)	Cell cycle phase arrest [7]	Cell population in G0/G1 phase [7]	Cell population in G2/M phase [7]	Cell population in S phase [7]
201 to 203.5 °C	95.7 ± 1.16 µM	95.7 µM			O=C(c1ccccc1)c1c(-c2ccccc2)oc2ccc(O)cc2c1=O [2b, 3-Benzoyl-6-hydroxy-2-phenyl-4H-chromen-4-one]	35.99 ± 1.32%	0.02 ± 0.003 µM Trolox/1 µM of Synthesized Compounds	105 ± 2.7%	72.4 ± 8.55%	40.9 ± 0.41%	24.8 ± 1.05%	75.7 ± 3.38%	74.9 ± 1.55%	5.32 ± 2.43%	contained anticancer activity				
270 to 271 °C		166.9 ± 0.49 µM	> 750 µM		O=C(c1ccccc1)c1c(-c2ccccc2)oc2cc(O)ccc2c1=O [2d, 3-Benzoyl-7-hydroxy-2-phenyl-4H-chromen-4-one]	27.59 ± 2.46%	0.02 ± 0.003 µM Trolox/1 µM of Synthesized Compounds	88.7 ± 1.33%	87.8 ± 1.8%	85.17 ± 0.79%	42.36 ± 0.09%	77.8 ± 6.93%	72.5 ± 3.41%	15.85 ± 4.61%	contained anticancer activity				
